Assay results taken from patent US20190038209A1, “Using Spectral CT to Diagnose Thyroid Nodules” (BOARD OF REGENTS, THE UNIVERSITY OF TEXAS SYSTEM, priority 2016, published 2019).

Assay: Spectral CT iodine-no-water map of rat thyroid before and after oral potassium iodide
Format: in vivo
Conditions: Fischer rats, 654 mg potassium iodide (500 mg iodine) oral gavage, 10 hours of uptake; baseline 1.5 mg I/mL
Protocol: Next, a Philips IQon Spectral CT scanner was used to obtain in vivo animal data. Three healthy female Fischer rats ranging from 150 g to 250 g mass were each anesthetized using 2.5% isoflurane and scanned in a supine position using the highest resolution settings for the IQon Spectral CT clinical scanner (0.625 mm slice thickness with 0.20 mm in-plane pixel resolution). The baseline endogenous iodine levels within the rat thyroid were measured using the iodine-no-water map and averaged 1.5 mg I/mL. These levels are similar to the baseline endogenous iodine levels found within healthy human thyroid tissue. The rats were then each given a bolus dose of 654 mg of potassium iodide (equivalent to 500 mg of iodine) that was dissolved in 1 mL of water and administered orally using a gavage. After 10 hours of uptake the rats were again anesthetized with 2.5% isoflurane and scanned a second time on the IQon Spectral CT using the same settings as before. The iodine levels within the rat thyroid now averaged 3.0 mg I/mL, or a 100% increase in iodine. […] Generally, a 500 mg dose of oral iodine given to humans can increase the level of organified iodine in the thyroid tissue (after a full 24 hours of uptake) from 1.5 mg I/mL to 5-10 mg I/ml depending on total thyroid volume. […]

## [I-].[K+] [potassium iodide]
  iodine levels within the rat thyroid (average): 3.0 mg I/mL
